Data on two molecules can be found in patent EP0326326A1, “Cysteine derivatives” (SANTEN PHARMACEUTICAL CO., LTD., priority 1988, dated 1989).

Data set [1] concerns haemolytic plaque-forming spleen cells. The data set is described as follows: Effect on immune response against sheep red blood cells of mouse (haemolytic plaque-forming spleen cell count). The class given is in vivo, female BALB/c mice. The conditions noted are these: Erythrocyte, ip, 96 h, mice immunized with 5 x 10⁸ sheep red blood cells i.p., compound administered continuously for 4 days, calculated from the cell count, read-out: 50% suppressive dose. The method, then: According to the method of Iso ( Int. J. Immunotherapy, 1, 93 (1985)), 5 x 10⁸ sheep red blood cells were administered intraperitoneally to female BALB/c mice ( 3 to 5 mice a group ) and immunized.
After immunization, the test compound suspended in 1% methyl cellulose solution was administered continuously for 4 days.
Mice were killed and the number of haemolytic plaque-forming spleen cells were measured.
50% suppressive dose was calculated based on the cell count. For a comparison, the similar test with the known compound of the formula[IV] described in US Patent 4305958 was performed.

The next data set relates to ddY mice. The data set is described as follows: Acute toxicity. The conditions noted are these: mouse, in vivo, po, 2000 mg/kg. As to the method:
(§1) The compound No.2 was suspended in 0.5% methyl cellulose solution at 20% concentration. The solution was administered orally to ddY mice ( male, 5 weeks age, 6 mice a group ) at a dose of 2000mg/kg.

A short description of a further data set: Acute toxicity. More on the design: species or system ddY mice. The conditions noted are these: mouse, in vivo; oral, ddY mice, male, single dose of 2000mg/kg; read-out: LD₅₀. As to the method:
as §1

The subject of data set [2] is liver disorder caused by CCl₄. Put plainly: Effect on the liver disorder caused by CCl₄ (serum GOT and GPT levels). The class given is in vivo, male Wistar rats. The conditions noted are these: 24 hours after CCl₄ 0.25ml/kg intraperitoneally, test compound 300mg/kg orally 30 minutes before, rat. As to the method: The rat liver disorder model cause by CCl₄ is generally used to examine the efficacy of a drug for liver diseases.
The test compound was suspended in tragacanth gum solution and administered orally to male Wistar rats ( 5rats a group) at a dose of 300mg/kg.
Thirty minutes later, CCl₄ a liver disorder inducer, was given intraperitoneally at a dose of 0.25ml/kg.
Serum GOT and GPT levels were measured 24 hours after the administration of CCl₄ . To a control, 0.5% tragacanth gum solution was given.

As to `CC(C)(S)C(=O)NC(CS)C(=O)O` (stereo not drawn) [known compound, reference compound], the ED50 in data set [1] is 90.6 mg/kg.
For `CC(C)(CS)C(=O)N[C@@H](CS)C(=O)O` [Compound No.2, N-(2,2-Dimethyl-3-mercaptopropionyl)-L-cysteine], in data set [1], the ED50 is 19.1 mg/kg. In the data set on ddY mice, the Toxicity entry is reported as “weak with a single case of death”. Moreover, the LD50 in “Acute toxicity” was > 2000 mg/kg. Besides, in data set [2], the GOT stood at 13605 and the GPT was 6558.
